Assay results from patent US7678808B2, “5 HT receptor mediated neurogenesis” (BrainCells, Inc., priority 2006, dated 2010).
Entries after “also recorded” stand apart in the source; their conditions may differ. Where a name gives a salt, the structure may show the parent alone.

How the values were obtained:
mGluR2 = mGluR2 (Homo sapiens, UniProt Q14416); details: read-out: IC50 against mGluR2; cited from earlier work
mGluR3 = mGluR3 (Homo sapiens, UniProt Q14832); details: read-out: IC50 against mGluR3; cited from earlier work
Chain of mGluR3 (Q14832 23-879): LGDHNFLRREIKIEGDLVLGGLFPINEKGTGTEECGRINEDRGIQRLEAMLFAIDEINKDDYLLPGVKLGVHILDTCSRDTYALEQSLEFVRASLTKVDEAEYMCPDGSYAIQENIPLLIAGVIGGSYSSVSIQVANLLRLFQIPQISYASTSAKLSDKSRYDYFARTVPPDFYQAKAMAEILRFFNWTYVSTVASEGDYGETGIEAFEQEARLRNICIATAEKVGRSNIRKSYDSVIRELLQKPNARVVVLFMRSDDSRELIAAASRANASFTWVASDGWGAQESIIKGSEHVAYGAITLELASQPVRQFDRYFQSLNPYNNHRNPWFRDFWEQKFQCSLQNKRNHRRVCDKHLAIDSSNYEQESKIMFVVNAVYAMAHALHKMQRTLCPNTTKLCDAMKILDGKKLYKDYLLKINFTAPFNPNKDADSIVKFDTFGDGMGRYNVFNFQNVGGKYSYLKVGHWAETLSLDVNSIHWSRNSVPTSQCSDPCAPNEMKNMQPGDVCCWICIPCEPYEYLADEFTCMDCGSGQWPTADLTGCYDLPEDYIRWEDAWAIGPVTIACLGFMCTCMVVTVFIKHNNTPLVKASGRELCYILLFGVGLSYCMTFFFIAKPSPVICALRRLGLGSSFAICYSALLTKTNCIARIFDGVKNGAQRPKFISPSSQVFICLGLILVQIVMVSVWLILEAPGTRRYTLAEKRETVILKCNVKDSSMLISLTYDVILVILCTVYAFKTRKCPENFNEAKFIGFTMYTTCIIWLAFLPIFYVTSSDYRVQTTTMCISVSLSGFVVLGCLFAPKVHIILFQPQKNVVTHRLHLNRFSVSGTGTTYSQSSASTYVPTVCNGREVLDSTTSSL

[1] = test system: Group I or Group III receptors; details: sub-mM concentrations; cited from earlier work
[2] = test system: KA, AMPA, and NMDA iGlu receptors; details: cited from earlier work
human mGlu2 = human mGlu2 (Homo sapiens, UniProt Q14416); details: in vitro; low nanomolar range; read-out: EC50 against human mGlu2 receptors; cited from earlier work
Chain of human mGlu2 (Q14416 19-872): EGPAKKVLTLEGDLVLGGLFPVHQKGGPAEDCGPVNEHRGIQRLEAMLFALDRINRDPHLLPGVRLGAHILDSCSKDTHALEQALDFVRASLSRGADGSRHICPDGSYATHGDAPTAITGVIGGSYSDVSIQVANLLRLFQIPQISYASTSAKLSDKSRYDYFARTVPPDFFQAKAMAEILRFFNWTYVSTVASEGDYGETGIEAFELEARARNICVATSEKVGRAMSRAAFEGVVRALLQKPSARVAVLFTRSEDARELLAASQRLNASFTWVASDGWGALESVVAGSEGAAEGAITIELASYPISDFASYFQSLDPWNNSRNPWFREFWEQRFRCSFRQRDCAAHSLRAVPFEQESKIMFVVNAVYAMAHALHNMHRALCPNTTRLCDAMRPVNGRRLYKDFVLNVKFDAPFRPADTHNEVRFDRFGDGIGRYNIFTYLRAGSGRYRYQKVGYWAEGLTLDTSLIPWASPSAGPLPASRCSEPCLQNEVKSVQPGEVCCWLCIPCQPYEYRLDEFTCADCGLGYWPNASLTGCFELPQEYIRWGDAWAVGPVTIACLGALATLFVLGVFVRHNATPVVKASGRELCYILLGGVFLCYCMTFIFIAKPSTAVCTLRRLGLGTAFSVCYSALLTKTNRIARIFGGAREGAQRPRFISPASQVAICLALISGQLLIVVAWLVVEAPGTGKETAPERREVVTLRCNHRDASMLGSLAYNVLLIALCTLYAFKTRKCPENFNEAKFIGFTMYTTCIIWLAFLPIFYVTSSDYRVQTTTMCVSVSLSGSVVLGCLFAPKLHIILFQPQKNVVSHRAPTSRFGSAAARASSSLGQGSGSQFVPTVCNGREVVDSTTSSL

human mGlu3 = human mGlu3 (Homo sapiens, UniProt Q14832); details: in vitro; low nanomolar range; read-out: EC50 against human mGlu3 receptors; cited from earlier work
Chain of human mGlu3 (Q14832 23-879): as the sequence (Q14832 23-879) above

[3] = test system: human neural stem cells (hNSCs); experiment: Neuronal differentiation of human neural stem cells (TUJ-1 staining); assay type: cell-based; details: hNSC; for EC50: agent alone, data as % of neuronal positive control, basal media subtracted; for effect on neuronal differentiation (in words): TUJ-1
Excerpt: Mitogen-free test media with a positive control was used for neuronal differentiation, and basal media without growth factors served as a negative control.
Mitogen-free test media with a positive control for neuronal differentiation was used, and basal media without growth factors served as a negative control.
(§1) Human neural stem cells (hNSCs) were isolated and grown in monolayer culture, plated, treated with varying concentrations of buspirone in the presence or absence of the melatonin agonist melatonin, and stained with TUJ-1 antibody for the detection of neuronal differentiation or GFAP antibody for the detection of astrocyte differentiation, as described above. Mitogen-free test media with a positive control for neuronal differentiation was used along with basal media without growth factors as a negative control.
(§2) Human neural stem cells (hNSCs) were isolated and grown in monolayer culture, plated, treated with varying concentrations of a 5-HT3 antagonist and stained with TUJ-1 antibody, as described above. Mitogen-free test media with a positive control for neuronal differentiation was used along with basal media without growth factors as a negative control.
as §2, with “5-HT4 agonist” for “5-HT3 antagonist”
The presence of synergy was determined by use of a combination index (CI). […] The CI is a quantitative measure of the nature of drug interactions, comparing the EC50's of two compounds, when each is assayed alone, to the EC50 of each compound when assayed in combination. The combination index (CI) is equal to the following formula: […]
where C1 and C2 are the concentrations of a first and a second compound, respectively, resulting in 50% activity in neuronal differentiation when assayed in combination; and IC1 and IC2 are the concentrations of each compound resulting in 50% activity when assayed independently.

[4] = test system: human neural stem cells (hNSCs); experiment: Astrocyte differentiation of hNSCs (GFAP staining); assay type: cell-based; details: for EC50: Homo sapiens, Neural stem cell, agent alone; for EC50 / effect on astrocyte differentiation (in words): hNSC; for effect on astrocyte differentiation (in words): GFAP; for maximum astrocyte differentiation: percent of positive control, agent alone or in combination
Description: Experiments were carried out as described in Example 1, except the positive control for astrocyte differentiation contained mitogen-free test media with a positive control, and cells were stained with GFAP antibody.
Experiments were carried out as described in Example 2, except the positive control for astrocyte differentiation contained mitogen-free test media with a different positive control.
as §1

[5] = test system: human neural stem cells (hNSC); experiment: Immunohistochemistry with neuronal and astrocyte markers (TUJ-1, GFAP, Hoechst 33342); assay type: cell-based; details: incubated with 30 μM
Description: Immunohistochemistry was carried out as described above using TUJ-1 as a neuronal cell marker and GFAP as an astrocyte marker. The results are shown in FIG. […] Immunohistochemistry was carried out as described in Example 3.

Male F344 rats [6] = experiment: Novel Object Recognition (NOR) cognition assay; assay type: in vivo, rat; details: 1x per day for 28 days
Excerpt: The apparatus consisted of an open field (45×45×50 cm high) made of polycarbonate. Triplicate copies were used of the objects to be discriminated. Care was taken to ensure that the pair of objects tested were made from the same material so that they could not be distinguished readily by olfactory cues although they had very different appearances.
Each test session consisted of two phases. In the initial familiarization phase, two identical objects (A1 and A2) were placed in the far corners of the box arena. A rat was then placed in the middle of the arena and allowed 15 minutes to explore both objects. Exploration of an object was defined as directing the nose to the object at a distance of less than 2 cm and/or touching it with the nose. After a delay of 48-hours the rat was re-introduced to the arena (“test phase”). The box now contained a third identical copy of the familiar object (A3) and a new object (B). These were placed in the same locations as the sample stimuli, whereby the position (left or right) of the novel object in the test phase was balanced between rats. For half the rats, object A was the sample and object B was the novel alternative. The test phase was 15 minutes in duration, with the first 30 seconds of object interaction used to determine preference scores. Any animal with less than 15 seconds of object exploration were excluded from analysis.

Male F344 rats [7] = experiment: Novelty suppressed feeding (NSF) depression assay; assay type: in vivo, rat; details: 1x per day for 21 days; for latency to eat the food pellet (percent baseline): 0.5 mg/kg buspirone, 3.0 mg/kg melatonin or both, i.p.
Description: Twenty-four hours prior to behavioral testing, all food is removed from the home cage. At the time of testing a single pellet is placed in the center of a novel arena. Animals are placed in the corner of the arena and latency to eat the pellet is recorded. […] Animals receive compound daily for 21 days and testing is performed on day 21. A decreased latency to eat the food pellet is indicative of both neurogenesis and antidepressant activity.
Twenty-four hours prior to behavioral testing, all food is removed from the home cage. At the time of testing a single pellet is placed in the center of a novel arena. Animals are placed in the corner of the arena and the latency (in time) to eat the pellet is recorded. […] Animals receive compound daily for 21 days and testing is performed on day 21. A decreased latency to eat the food pellet is indicative of both neurogenesis and antidepressant activity.

[8] = test system: granule cell layer of the dentate gyrus; experiment: In vivo neurogenesis (BrdU positive cell counts); design: species or system rat; details: 0.5 mg/kg buspirone, 3.0 mg/kg melatonin or both, i.p., 1x per day for 28 days
Description: BrdU was administered once daily between days 9 and 14 (100 mg/kg/day, i.p., n=12 per dose group). […] Data are presented as percent change in BrdU positive cells per cubic mm dentate gyrus.

[9] = Rat body weight during chronic dosing; details: buspirone 0.5 and 5.0 mg/kg i.p., 1x per day for 28 days
[10] = % of astrocyte positive control, basal media subtracted
[11] = buspirone 0.5 and 5.0 mg/kg i.p.

Chain of mGluR2 (Q14416 19-872): as the sequence (Q14416 19-872) above

## NC1(C(=O)O)CCc2cc(P(=O)(O)O)ccc21 (racemic) [APICA, (RS)-1-amino-5-phosphonoindan-1-carboxylic acid]
mGluR2
  IC50: ~30 µM
mGluR3
  IC50: ~30 µM
[1]
  activity against Group I or Group III receptors: no appreciable activity

## N[C@](CC1c2ccccc2Oc2ccccc21)(C(=O)O)[C@H]1C[C@@H]1C(=O)O [LY341495, (2S)-2-amino-2-(1S,2S-2-carboxycycloprop-1-yl)-3-(xanth-9-yl) propanoic acid]
[2]
  activity against KA, AMPA, and NMDA iGlu receptors: substantially inactive

## N[C@@]1(C(=O)O)CO[C@H]2[C@H](C(=O)O)[C@H]21 [LY379268, (−)-2-oxa-4-aminobicyclohexane-4,6-dicarboxylic acid]
Human mGlu2
  EC50: < 0.01 µM
Human mGlu3
  EC50: < 0.01 µM

## CN1C(=O)COc2c(C(=O)NC3CN4CCC3CC4)cc(Cl)cc21 (stereo not shown) [azasetron]
[3]
  EC50: 5.8 µM
  effect on neuronal differentiation (in words): promote differentiation of neural stem cells into neurons
[3]; listed as Azasetron
  effect on neuronal differentiation (in words): significantly promoted neuronal differentiation
[4]; [10]
  EC50: > 31.6 µM
[4]
  effect on astrocyte differentiation (in words): did not show a significant effect on astrocyte differentiation
  maximum astrocyte differentiation: 33%
[5]
  lineage of hNSC monolayer in immunofluorescent image: primarily of a neuronal lineage

## O=C1CC2(CCCC2)CC(=O)N1CCCCN1CCN(c2ncccn2)CC1 [buspirone]
[3]
  EC50: 9.4 µM
[4]
  EC50: 5.7 µM
  maximum astrocyte differentiation: 60%
Male F344 rats [6]; [11]
  preference for the novel object (visits, time spent): did not increase preference for the novel object; also recorded: did not demonstrate a significant effect on cognition
Male F344 rats [7]
  latency to eat the food pellet (percent baseline): did not significantly reduce the latency to eat the food pellet
Male F344 rats [7]; [11]
  latency to eat the food pellet: did not significantly reduce the latency to eat the food pellet; also recorded: did not demonstrate a significant effect on novelty suppressed feeding
[8]
  BrdU positive cells per cubic mm dentate gyrus (percent change): did not significantly change the number of BrdU positive cells
[9]
  mean body weight: dose-dependent decrease in mean body weight

## CNCCC(Oc1ccc(C(F)(F)F)cc1)c1ccccc1 (stereo not shown) [fluoxetine]
Male F344 rats [6]; fluoxetine 5 and 10 mg/kg p.o.
  preference for the novel object (visits, time spent): increased both the number of visits to, and the amount of time spent with, the novel object; also recorded: dose dependent increase in preference for the novel object
Male F344 rats [7]; fluoxetine 10.0 mg/kg p.o.
  latency to eat the food pellet: reduced the latency to eat the food pellet

## COc1ccc2[nH]cc(CCNC(C)=O)c2c1 [melatonin]
[3]; Homo sapiens, Neural stem cell
  EC50: > 31.6 µM
[4]; [10]
  EC50: > 31.6 µM
Male F344 rats [7]
  latency to eat the food pellet (percent baseline): did not significantly reduce the latency to eat the food pellet
[8]
  BrdU positive cells per cubic mm dentate gyrus (percent change): did not significantly change the number of BrdU positive cells

## CCOc1cc(N)c(Cl)cc1C(=O)NCC1CN(Cc2ccc(F)cc2)CCO1 (stereo not shown) [mosapride citrate]
[3]; Homo sapiens, Neural stem cell
  EC50: ~15.8 µM
[3]
  EC50: 10.4 µM
[3]; listed as Mosapride citrate
  effect on neuronal differentiation (in words): significantly promoted neuronal differentiation
[3]; listed as mosapride
  effect on neuronal differentiation (in words): promote differentiation of neural stem cells into neurons
[4]; [10]
  EC50: > 31.6 µM
[4]
  effect on astrocyte differentiation (in words): did not show a significant effect on astrocyte differentiation
[5]
  lineage of hNSC monolayer in immunofluorescent image: primarily of a neuronal lineage
